Assay results reported in PubChem BioAssay AID467 (The Scripps Research Institute Molecular Screening Center, 2006).
The source made the active and inactive calls. How the calls were made is not given here.

The molecules below were run on parental cell line counter screen, S1P1 agonist assay readout (assay: signal in parental cells, counter-screen for S1P1 agonist project (AID 467);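 further: agonist potency measured against forskolin stimulation plus an EC20 level of SEW2871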).
For `Cc1ccc(-c2csc(N3CCC(NS(=O)(=O)c4ccc5c(c4)OCCO5)CC3)n2)cc1`, the EC50 was 5.75 µM.
With `Cc1ccccc1-c1noc(-c2ccc(O)cc2)n1` the EC50 was 25 µM (inactive).
For `O=C1CC(N2CCN(C/C=C/c3ccccc3)CC2)C(=O)N1CCc1ccccc1` (stereo not given), the EC50 was > 30 µM (inactive).
For `COC(=O)c1c(C)n(-c2ccc(OC)cc2)c2ccc(O)cc12`, the EC50 was 20.1 µM (inactive).
Molecule `O=C(CCN1CCc2ccccc2CC1)c1ccc2c(c1)OCCO2` has an EC50 of 4.84 µM.
For `COc1cccc(-c2nc(-c3ccc(NC(=O)c4cccnc4)cc3)no2)c1`, the EC50 was > 95.1 µM (inactive).
`O=C(CSCC(=O)N1CCCCC1)Nc1nc(-c2cccs2)cs1` was tested, and the EC50 was > 30 µM (inactive).
`CCOC(=O)N1CCN(C(=O)C2CCN(c3ncnc4c3sc3cccc(F)c34)CC2)CC1` was tested, and the EC50 was 24.2 µM (inactive).
With `O=C(c1ccccc1)C(CCC(CN1CCOCC1)C(=O)c1ccccc1)CN1CCOCC1` (stereo not given) the EC50 was 2.68 µM.
For `CCCc1cc2c(=O)c(-c3ccccn3)coc2cc1OC`, the EC50 was > 95.1 µM (inactive).
`Cc1cc(C)n2nc(SCC(=O)c3cc(C)n(-c4cc(C)on4)c3C)nc2n1` was tested, and the EC50 was 63.5 µM (inactive).
`c1ccc(C(Cc2nc(-c3cccnc3)no2)c2ccccc2)cc1` was tested, and the EC50 was > 95.1 µM (inactive).
`O=C(CSC1=NCCS1)Nc1ccnc2ccccc12` was tested, and the EC50 was 11.1 µM (inactive).
`Fc1ccc2[nH]c3c(N4CCN(Cc5ccc6c(c5)OCO6)CC4)ncnc3c2c1` was tested, and the EC50 was 8.16 µM.
With `CN1/C(=C/C(=O)c2nc(S(C)(=O)=O)ncc2Cl)C(C)(C)c2ccccc21` the EC50 was 2.22 µM.
With `Cc1[nH]nc2c1C1(C(=O)N(Cc3ccc(Cl)cc3)c3ccccc31)C(C#N)=C(N)O2` (stereo not given) the EC50 was > 30 µM (inactive).
With `COc1ccc(S(=O)(=O)Cc2ccc(C(=O)N3CCN(c4ccc(Cl)cc4)CC3)o2)cc1` the EC50 was > 30 µM (inactive).
With `CCN(CC)S(=O)(=O)c1cc(C(=O)Nc2ccncc2)ccc1Cl` the EC50 was > 95.1 µM (inactive).
In the case of `CCOc1ccc(-c2nnc(-c3ccco3)o2)cc1OCC`, the EC50 is reported as > 95.1 µM (inactive).
In the case of `O=C(Nc1cccc(C(F)(F)F)c1)N1CCC(c2nc(-c3ccc(F)cc3)no2)CC1`, the EC50 is reported as 14.4 µM (inactive).
With `Cc1cc(/C=N/n2cnnc2)c(C)n1-c1ccc(OCc2ccc(F)cc2)cc1` the EC50 was 6.71 µM.
For `COc1ccccc1-c1nc(-c2ccc(Br)cc2)no1`, the EC50 was > 95.1 µM (inactive).
For `O=C(CSc1nnc(-c2ccc(Cl)cc2)n1Cc1ccco1)c1cccs1`, the EC50 was > 30 µM (inactive).
`C/C(N)=C(/C#N)C(=O)CSc1nnc(SCc2ccc(Cl)cc2)s1` was tested, and the EC50 was > 95.1 µM (inactive).
`O=C(CCc1nc(-c2ccccc2F)no1)Nc1ccc(Oc2ccccc2)cc1` was tested, and the EC50 was 6.94 µM.
`c1ccc(-c2ccc(-c3nc(-c4cccnc4)no3)cc2)cc1` was tested, and the EC50 was > 95.1 µM (inactive).
`CCCCOc1ncnc2c1[nH]c1ccccc12` was tested, and the EC50 was 37.9 µM (inactive).
Molecule `Cc1ccc2c(c1)[nH]c1c(N3CCN(Cc4ccccc4)CC3)ncnc12` has an EC50 of 7.72 µM.
For `CCOc1ccc(Cc2nc(-c3nonc3N)no2)cc1OCC`, the EC50 was > 95.1 µM (inactive).
`Cn1c(SCC(=O)Nc2ccc(N3CCOCC3)c(Cl)c2)nnc1-c1ccccc1` was tested, and the EC50 was > 95.1 µM (inactive).
In the case of `CCCc1cc(C(=O)Nc2sc(C)c(CC)c2C#N)no1`, the EC50 is reported as > 95.1 µM (inactive).
`CCn1c(NC(=O)c2cccc(Cn3cc(Cl)cn3)c2)nc2ccccc21` was tested, and the EC50 was > 95.1 µM (inactive).
In the case of `CCOC(=O)C1CCN(c2ncnc3c2oc2ccc(Cl)cc23)CC1`, the EC50 is reported as > 95.1 µM (inactive).
For `COc1ccc(CNC(=O)c2cc3c(C)nc4ccccc4c3o2)c(OC)c1`, the EC50 was > 95.1 µM (inactive).
`CCOc1ccc(-c2nc(-c3ccccc3C)no2)cc1` was tested, and the EC50 was > 95.1 µM (inactive).
With `CCCCNc1cc(C)nc(NCc2ccccc2)n1` the EC50 was 12.8 µM (inactive).
`CN(C)c1ccnc2sc3c(=O)n(Cc4ccccc4)cnc3c12` was tested, and the EC50 was > 95.1 µM (inactive).
For `CCOC(=O)Nc1ccc2c(c1)N(C(=O)CCN(C)C)c1ccccc1S2`, the EC50 was > 10 µM (inactive).
`Cn1c(C(=O)N2CCc3ccccc3C2)cc2oc3ccccc3c21` was tested, and the EC50 was 66.4 µM (inactive).
With `COc1cc(-c2noc(C3CCCN(S(=O)(=O)c4cccc(Cl)c4)C3)n2)cc(OC)c1OC` (stereo not given) the EC50 was > 95.1 µM (inactive).
In the case of `CC(Oc1ccccc1Br)C(=O)N1CCc2ccccc21` (stereo not given), the EC50 is reported as > 95.1 µM (inactive).
With `CC1Cc2cc(-c3csc(NC(=O)Cc4cccs4)n3)ccc2N1S(C)(=O)=O` (stereo not given) the EC50 was 23.8 µM (inactive).
With `CCCC(=O)N1CCN(c2ccc(NC(=O)c3cc4ccccc4o3)cc2Cl)CC1` the EC50 was 10.8 µM (inactive).
`CCC(C)OC(=O)c1[nH]c2c(c1C)C(=O)CC(c1ccc(N(C)C)cc1)C2` (stereo not given) was tested, and the EC50 was > 30 µM (inactive).
With `Cc1cccc(-c2nc(C#N)c(NC3CCCCC3)o2)c1` the EC50 was > 95.1 µM (inactive).
With `O=C(Nc1nc2c(s1)CCCC2)c1cc2n(n1)C(C(F)(F)F)CC(C1CC1)N2` (stereo not given) the EC50 was > 95.1 µM (inactive).
For `CC(=O)Oc1ccc(N2C(=O)C3C(C2=O)C2(C)C=CC3(C)O2)cc1` (stereo not given), the EC50 was 3.23 µM.
For `O=S(=O)(c1cccs1)N1CCN(CC(O)COc2cc(Cl)ccc2Cl)CC1` (stereo not given), the EC50 was 24.6 µM (inactive).
In the case of `O=C(Nc1nc(-c2ccc(Cl)s2)cs1)c1ccncc1`, the EC50 is reported as > 95.1 µM (inactive).
In the case of `CC(C)C(c1nnnn1Cc1ccccc1)N(Cc1ccco1)Cc1cccs1` (stereo not given), the EC50 is reported as > 95.1 µM (inactive).
With `Cc1ccc(OCc2nc(-c3ccccc3)no2)c(C)c1` the EC50 was > 95.1 µM (inactive).
With `CCC(NC(=O)Nc1nnc(C(F)(F)F)s1)(C(F)(F)F)C(F)(F)F` the EC50 was > 95.1 µM (inactive).
Work on `O=S(=O)(C/C(=C/CO)S(=O)(=O)c1ccccc1)c1ccccc1` yielded an EC50 of 2.21 µM.
`O=c1[nH]nc(Sc2ncnc3sccc23)n1CCc1ccccc1` was tested, and the EC50 was 21.1 µM (inactive).
For `O=C(C1CCN(S(=O)(=O)c2cccc3cccnc23)CC1)N1CCN(c2ccc(Cl)cc2)CC1`, the EC50 was 38.3 µM (inactive).
For `O=C1C2CCCN2C(c2cccnc2)N1c1cccc(Cl)c1` (stereo not given), the EC50 was > 95.1 µM (inactive).
`O=C(Nc1ccccc1C(F)(F)F)c1cc(-c2ccc(O)cc2)on1` was tested, and the EC50 was > 95.1 µM (inactive).
Work on `CCOC(=O)/C=C/S(=O)(=O)c1ccc(NC(C)=O)cc1` yielded an EC50 of 3.96 µM.
For `CCCOc1ccc(-c2nnc(-c3ccncc3)o2)cc1`, the EC50 was > 95.1 µM (inactive).
In the case of `Fc1ccc2[nH]c3c(N4CCN(c5ccccc5)CC4)ncnc3c2c1`, the EC50 is reported as 18.5 µM (inactive).
In the case of `CCOc1ccc(S(=O)(=O)n2cnc3cc(C)c(C)cc32)cc1`, the EC50 is reported as > 30 µM (inactive).
With `COC(=O)c1ccc2c(=O)n(C3CCCCC3)c(SCC#N)nc2c1` the EC50 was > 95.1 µM (inactive).
With `c1ccc(CNc2ncnc3ccccc23)cc1` the EC50 was 30.1 µM (inactive).
With `CC(C)(C)NC(=O)CSc1ncnc2c1nnn2Cc1ccccc1Cl` the EC50 was 7.01 µM.
With `CCCCOc1ccc(S(=O)(=O)Nc2cc(OC)ccc2OC)cc1` the EC50 was > 30 µM (inactive).
For `COc1ccc(-n2c(C)cc(C(=O)COC(=O)Cn3cnc4ccccc43)c2C)cc1`, the EC50 was > 30 µM (inactive).
For `O=C(NCc1ccc2c(c1)OCO2)C1CC(=O)N(C2CCCCCCC2)C1` (stereo not given), the EC50 was > 95.1 µM (inactive).
With `COc1cc(C#CC#CCN2CCCCC2)ccc1O` the EC50 was 63.9 µM (inactive).
With `CC(=O)N1CCCc2cc(S(=O)(=O)NCCC3=CCCCC3)ccc21` the EC50 was > 95.1 µM (inactive).
For `CC(C)[C@H](NC(=O)OC(C)(C)C)c1nnc(SCC(=O)Nc2ccc(Br)cc2)o1`, the EC50 was > 30 µM (inactive).
In the case of `Cc1oc(-c2ccccc2)nc1Cn1cccc1C1=NC(c2ccccc2)CO1` (stereo not given), the EC50 is reported as > 95.1 µM (inactive).
With `Cn1c(=O)oc2cc(S(=O)(=O)N3CCCC(C(=O)N4CC=C(c5ccccc5)CC4)C3)ccc21` (stereo not given) the EC50 was 44.5 µM (inactive).
With `CCOc1ccccc1COC(=O)c1cccc(-n2cnnn2)c1` the EC50 was > 95.1 µM (inactive).
With `CCOC(=O)C1C(=O)C=C(c2ccc(OC)cc2)CC1c1ccco1` (stereo not given) the EC50 was > 30 µM (inactive).
With `COc1ccc(-c2cn3c(C)c(C(=O)N4CCCc5ccccc54)sc3n2)cc1` the EC50 was > 95.1 µM (inactive).
For `Cc1ccc(C(C)C)c(OCc2ccc(-c3nnco3)cc2)c1`, the EC50 was > 95.1 µM (inactive).
With `COc1ccccc1Oc1ccc2c(c1)C(=O)N(c1ccc(O)cc1)C2=O` the EC50 was > 95.1 µM (inactive).
In the case of `CCc1ccc2oc(-c3cc(N)cc(C)c3O)nc2c1`, the EC50 is reported as > 95.1 µM (inactive).
`Cc1nn(Cc2ccc(Cl)cc2)c(C)c1NC(=O)c1cc(-c2ccco2)on1` was tested, and the EC50 was 85.2 µM (inactive).
`COc1ccc(S(=O)(=O)Cc2ccc(C(=O)N3CCN(c4cccc(C)c4C)CC3)o2)cc1` was tested, and the EC50 was > 30 µM (inactive).
With `COc1ccc(CCNc2ncnc3c2oc2ccccc23)cc1OC` the EC50 was 5.31 µM.
With `Cc1csc(SCC(=O)c2cc(C)n(Cc3cccs3)c2C)n1` the EC50 was 38.8 µM (inactive).
`Clc1ccc(-n2nnnc2Sc2ncnc3sccc23)cc1` gave an EC50 of 2.87 µM.
`COCC(=O)Nc1cccc(C(F)(F)F)c1` was tested, and the EC50 was > 95.1 µM (inactive).
For `CC(C)(CC(=O)N1CCN(c2ccc(Cl)cc2)CC1)CC1=NS(=O)(=O)c2ccccc2N1`, the EC50 was 19.9 µM (inactive).
`CCc1oc2ccccc2c1C(=O)c1cc(Br)c(O)c(Br)c1` was tested, and the EC50 was 13.5 µM (inactive).
For `CCOC(=O)CN(C(=O)CSc1nnc(-c2cccc(OC)c2)o1)c1ccc(F)cc1`, the EC50 was > 95.1 µM (inactive).
With `Cc1cc(C(=O)CSc2nnc(-c3ccco3)o2)c(C)n1-c1ccc2c(c1)OCCO2` the EC50 was > 10 µM (inactive).
For `CCOC(=O)N1CCC(NC(=O)C2CCCN(Cc3nc(-c4cccc(Cl)c4)oc3C)C2)CC1` (stereo not given), the EC50 was > 95.1 µM (inactive).
With `CCc1ccc(S(=O)(=O)NCCc2csc(-c3ccccc3)n2)s1` the EC50 was 33.4 µM (inactive).
`c1ccc(N2CCN(c3ncnc4c3oc3ccccc34)CC2)cc1` was tested, and the EC50 was > 95.1 µM (inactive).
In the case of `CC(C)c1cc(C(=O)N2CCN(C(c3ccccc3)c3ccccc3)CC2)no1`, the EC50 is reported as > 95.1 µM (inactive).
In the case of `CC(=O)c1ccc(NC(=O)N2CCN(c3cccc(Cl)c3)CC2)cc1`, the EC50 is reported as > 30 µM (inactive).
With `O=C(C1CCC1)N1CCc2cc(S(=O)(=O)Nc3ccc4c(c3)OCCO4)ccc21` the EC50 was > 95.1 µM (inactive).
`OC1(c2cccc(C(F)(F)F)c2)CCN(c2ncnc3c2[nH]c2ccc(F)cc23)CC1` was tested, and the EC50 was > 3 µM (inactive).
`COc1ccc(NC(=O)c2cc(-c3cccs3)on2)cc1OC` was tested, and the EC50 was > 95.1 µM (inactive).
For `CC1Cc2ccccc2N1c1ncnc2nc[nH]c12` (stereo not given), the EC50 was 11.4 µM (inactive).
For `CCc1c(C)nc2ncnn2c1NCCc1ccc(OC)cc1`, the EC50 was 40.9 µM (inactive).
For `O=C(Nc1ccc(N2CCOCC2)c(Cl)c1)c1cccc(F)c1`, the EC50 was > 95.1 µM (inactive).
`CN(CC1CCCO1)S(=O)(=O)c1ccc(C(=O)Nc2nc(-c3ccccn3)cs2)cc1` (stereo not given) was tested, and the EC50 was > 30 µM (inactive).
